Test results taken from patent US20040132156A1, “Modified hepsin molecules having a substitute activation sequence and uses thereof” (Schering Aktiengesellschaft, priority 2002, published 2004).
Where two headings read alike, the source gives them in different places.

Tested on: hepsin mRNA in LNCaP cells
Details: DHT 10 nM, 24 or 72 hours, Northern blot, compared to GAPDH
Experimental: The prostate cancer cell lines, LNCaP, were obtained from ATCC. The LNCaP cells were treated with dihydrotestosterone (Sigma A 8380) in order to study the response of hepsin mRNA expression to androgens. The confluent cells were cultured in growth medium containing charcoal-stripped FBS for 24 hours. DHT was added to each flask at 10 nM. For control cells, ethanol was added as a vehicle control. The cells were incubated for 24 or 72 hours.
Total RNA was isolated from the cell lines using the RNeasy Maxi Kit (Qiagen), as described in section E above. The Northern gel and blot methods were performed as described in section A above.
The fold-increase of the amount of hepsin mRNA compared to GAPDH was performed according to section C above.

SMILES: C[C@]12CCC(=O)C[C@@H]1CC[C@@H]1[C@@H]2CC[C@]2(C)[C@@H](O)CC[C@@H]12 [DHT, dihydrotestosterone]
- hepsin mRNA transcript levels: increased
- hepsin mRNA transcript levels (listed as dihydrotestosterone): Up-regulation
